Measured values taken from patent US10051861B2, “N-arylamidine-substituted trifluoroethyl sulfide derivatives as acaricides and insecticides” (BAYER CROPSCIENCE AG, priority 2011, dated 2018).

Test system: greenhouse red spider mite (Tetranychus urticae)
Experiment: Tetranychus urticae spray test, OP-resistant (TETRUR), bean leaf disks
Format: in vivo
Settings: Tetranychus urticae, foliar, 144 h, application rate 100 g/ha, after 6 days; read-out: efficacy (spider mites killed)
Protocol: After 6 days, the effect in % is determined.

Structure (SMILES) | pest or weed control at 100 g/ha [%]
Cc1cc(F)c(/N=C(\N)c2cccs2)cc1SCC(F)(F)F [Ia-181] | 90

Same assay, conditions: Tetranychus urticae, foliar, 144 h, application rate 500 g/ha, after 6 days; read-out: efficacy (spider mites killed)

Structure (SMILES) | pest or weed control at 500 g/ha [%]
CN(C)/C(=N/c1cc(SCC(F)(F)F)c(F)cc1Cl)C(F)(F)F [Ia-109] | 80
Cc1cc(C)c(SCC(F)(F)F)cc1/N=C(\N)C(F)(F)Cl [Ia-122] | 100
N/C(=N\c1cc(SCC(F)(F)F)c(Cl)cc1Cl)C1(Cl)CC1 [Ia-123] | 100
N/C(=N/c1cc(SCC(F)(F)F)c(Cl)cc1Br)C(F)(F)F [Ia-124] | 100
N/C(=N\c1cc(SCC(F)(F)F)c(Cl)cc1Cl)C(F)F [Ia-125] | 100
CN/C(=N/c1cc(SCC(F)(F)F)c(C)cc1F)c1cccc(F)c1 [Ia-126] | 100
Cc1cc(C)c(SCC(F)(F)F)cc1/N=C(\N)C(F)(F)C(F)(F)F [Ia-127] | 100
Cc1cc(F)c(/N=C(\c2ccc(F)cc2)N(C)C)cc1SCC(F)(F)F [Ia-128] | 90
Cc1cc(F)c(/N=C(\c2ccc(C#N)cc2)N(C)C)cc1SCC(F)(F)F [Ia-131] | 100
Cc1cc(F)c(N=C(N)CC#N)cc1SCC(F)(F)F [Ia-132] | 100
Cc1cc(F)c(N=C(N)c2ccccc2F)cc1SCC(F)(F)F [Ia-133] | 100
CN/C(=N\c1cc(SCC(F)(F)F)c(Cl)cc1Cl)c1cccnc1 [Ia-136] | 100
Cc1cc(F)c(/N=c2\sc(C)c(C)n2CC(F)(F)F)cc1SCC(F)(F)F [Ia-138] | 100
N/C(=N\c1cc(SCC(F)(F)F)c(Cl)cc1Cl)C1CC1(Cl)Cl (centres unmarked) [Ia-140] | 100
N/C(=N\c1cc(SCC(F)(F)F)c(Cl)cc1Cl)c1cccnc1 [Ia-141] | 100
CN/C(=N/c1cc(SCC(F)(F)F)c(C)cc1F)c1ccc(F)cc1 [Ia-144] | 100
Cc1cc(F)c(/N=C(\c2ccccc2F)N(C)C)cc1SCC(F)(F)F [Ia-147] | 100
CN/C(=N\c1cc(SCC(F)(F)F)c(C)cc1F)c1cnc(Cl)c(Cl)c1 [Ia-148] | 100
C=CCN/C(=N\c1cc(SCC(F)(F)F)c(C)cc1F)c1ccc(Cl)nc1 [Ia-150] | 100
CCN/C(=N\c1cc(SCC(F)(F)F)c(C)cc1F)c1cccnc1 [Ia-151] | 100
CN/C(=N\c1cc(SCC(F)(F)F)c(Cl)cc1Cl)c1ccc(Cl)nc1 [Ia-152] | 100
FC(F)(F)CN/C(=N\c1cc(SCC(F)(F)F)c(Cl)cc1Cl)C1CC1 [Ia-153] | 100
NN/C(=N/c1cc(SCC(F)(F)F)c(Cl)cc1F)C(F)(F)F [Ia-155] | 90
N/C(=N\c1cc(SCC(F)(F)F)c(Cl)cc1Cl)C1CCCCC1 [Ia-156] | 100
Cc1cc(F)c(/N=C(\NC2CC2)c2ccc(Cl)nc2)cc1SCC(F)(F)F [Ia-158] | 100
CN/C(=N/c1cc(SCC(F)(F)F)c(C)cc1F)c1ccc(C(F)(F)F)nc1 [Ia-159] | 90
Cc1cc(F)c(/N=C(\c2ccc(C(F)(F)F)nc2)N(C)C)cc1SCC(F)(F)F [Ia-160] | 90

Structure (SMILES) | pest or weed control at 500 g/ha [%]
Cc1cc(F)c(/N=C(\N)C2CCCC2)cc1SCC(F)(F)F [Ia-161] | 100
CN/C(=N\c1cc(SCC(F)(F)F)c(C)cc1F)C1CC1 [Ia-163] | 100
Cc1cc(C)c(SCC(F)(F)F)cc1/N=C(/c1cccnc1)N(C)C [Ia-167] | 90
CN/C(=N/c1cc(SCC(F)(F)F)c(C)cc1F)c1ccc(Cl)nc1 [Ia-168] | 90
Cc1cc(F)c(/N=C(\N)C2CCCCC2)cc1SCC(F)(F)F [Ia-169] | 90
N/C(=N\c1cc(SCC(F)(F)F)c(Cl)cc1Cl)c1ccncc1 [Ia-172] | 90
N#CC/C(N)=N/c1cc(SCC(F)(F)F)c(Cl)cc1Cl [Ia-173] | 90
CN/C(=N\c1cc(SCC(F)(F)F)c(C)cc1C)c1ccc(Cl)cc1 [Ia-176] | 90
CN/C(=N\c1cc(SCC(F)(F)F)c(Cl)cc1Cl)c1cccc(Cl)c1 [Ia-177] | 90
C/C=C/C=C/C(=N/c1cc(SCC(F)(F)F)c(C)cc1F)NC(C)CC (centres unmarked) [Ia-178] | 90
Cc1cc(F)c(/N=C(/N2CCCC2)C(F)(F)F)cc1SCC(F)(F)F [Ia-180] | 90
Cc1cc(C)c(SCC(F)(F)F)cc1/N=C1\SCC(=O)N1C1CC1 [Ia-187] | 100
Cc1cc(F)c(/N=C2\SCC(=O)N2CC(F)F)cc1SCC(F)(F)F [Ia-188] | 100
Cc1cc(C)c(SCC(F)(F)F)cc1/N=C(\N)c1cnccn1 [Ia-190] | 90
O=C1CS/C(=N\c2cc(SCC(F)(F)F)c(Cl)cc2F)N1CC(F)(F)F [Ia-192] | 90
Cc1cc(F)c(/N=C(/c2ccccc2)N(C)C)cc1SCC(F)(F)F [Ia-193] | 100
O=C1CS/C(=N\c2ccc(Cl)c(SCC(F)(F)F)c2)N1CC(F)(F)F [Ia-194] | 100
Cc1ccc(/N=C2\SCC(=O)N2CC(F)(F)F)cc1SCC(F)(F)F [Ia-195] | 100
O=C1CS/C(=N\c2cc(SCC(F)(F)F)c(Cl)cc2Cl)N1C1CC1 [Ia-196] | 90
Cc1cc(F)c(/N=C2\SCC(=O)N2C2CC2)cc1SCC(F)(F)F [Ia-197] | 100
Cc1cc(F)c(/N=C2\CCCN2C(C)C(F)(F)F)cc1SCC(F)(F)F (centres unmarked) [Ia-201] | 100
CN/C(=N/c1cc(SCC(F)(F)F)c(C)cc1F)c1cccc(C(F)(F)F)c1 [Ia-203] | 100
CN(C)/C(=N\c1cc(SCC(F)(F)F)c(Cl)cc1Cl)c1ccccc1 [Ia-205] | 100
N/C(=N\c1cc(SCC(F)(F)F)c(Cl)cc1Cl)c1cnccn1 [Ia-208] | 100
CN(C)/C(=N\c1cc(SCC(F)(F)F)c(Cl)cc1Cl)c1ccc(Cl)cc1 [Ia-211] | 100
Cc1cc(F)c(/N=C(\c2cccc(C(F)(F)F)c2)N(C)C)cc1SCC(F)(F)F [Ia-212] | 90
Cc1ccc(/N=C(/N)C(F)(F)F)cc1SCC(F)(F)F [Ia-213] | 100

Structure (SMILES) | pest or weed control at 500 g/ha [%]
CN/C(=N\c1cc(SCC(F)(F)F)c(C)cc1C)c1ccccn1 [Ia-214] | 100
Cc1cc(F)c(/N=C(/N)c2ccc(Cl)cc2)cc1SCC(F)(F)F [Ia-215] | 90
Cc1cc(F)c(/N=C(/CC(F)(F)F)N(C)C)cc1SCC(F)(F)F [Ia-216] | 90
CN/C(=N/c1ccc(Cl)c(SCC(F)(F)F)c1)C(F)(F)F [Ia-217] | 100
CN/C(=N/c1cc(SCC(F)(F)F)c(C)cc1F)c1ccc(Cl)s1 [Ia-218] | 90
N#CC1(/C(N)=N/c2cc(SCC(F)(F)F)c(Cl)cc2Cl)CC1 [Ia-219] | 90
Cc1ccc(/C(=N/c2cc(SCC(F)(F)F)c(C)cc2F)N2CCOCC2)cc1 [Ia-221] | 100
Cc1ccc(/N=C(/N(C)C)C(F)(F)F)cc1SCC(F)(F)F [Ia-222] | 100
Cc1cc(F)c(/N=C(/N)c2ccc([N+](=O)[O-])cc2)cc1SCC(F)(F)F [Ia-223] | 90
CCN/C(=N\c1cc(SCC(F)(F)F)c(C)cc1C)c1cccnc1 [Ia-224] | 100
Cc1cc(F)c(/N=C(\N)C(C)C)cc1SCC(F)(F)F [Ia-225] | 100
CN/C(=N/c1cc(SCC(F)(F)F)c(C)cc1F)C(F)(F)F [Ia-226] | 100
CCN(C)/C(=N\c1cc(SCC(F)(F)F)c(C)cc1C)c1ccc(Cl)nc1 [Ia-227] | 100
Cc1cc(F)c(/N=C(/c2ccccc2Cl)N2CCOCC2)cc1SCC(F)(F)F [Ia-230] | 100
CCN(C)/C(=N\c1cc(SCC(F)(F)F)c(C)cc1C)c1ccc(Cl)cc1 [Ia-231] | 90
Cc1cc(C)c(SCC(F)(F)F)cc1/N=C(\NC1CC1)c1ccc(Cl)nc1 [Ia-232] | 90
CN/C(CC(F)(F)F)=N\c1cc(SCC(F)(F)F)c(C)cc1F [Ia-233] | 100
Cc1cc(Cl)c(SCC(F)(F)F)cc1/N=C(\N)c1cnccn1 [Ia-234] | 100
FC(F)(F)CSc1cc(/N=C(\NCCc2ncc(C(F)(F)F)cc2Cl)C2CC2)c(Cl)cc1Cl [Ia-235] | 90
COc1cc(C)c(SCC(F)(F)F)cc1/N=C(/N)C(F)(F)F [Ia-236, 2,2,2-Trifluoro-N′-{2-methoxy-4-methyl-5-[(2,2,2-trifluoroethyl)sulfanyl]phenyl}ethanimidamide] | 100
CN(C)/C(=N\c1cc(SCC(F)(F)F)c(Cl)cc1Cl)c1ccc(Cl)nc1 [Ia-237] | 90
CN/C(=N\c1cc(SCC(F)(F)F)c(C)cc1C)c1ccncc1 [Ia-239] | 100
Cc1cc(C)c(SCC(F)(F)F)cc1/N=C(/c1ccccc1)N(C)C [Ia-240] | 90
Cc1cc(C)c(SCC(F)(F)F)cc1/N=C(\NCC(F)(F)F)C1CCCC1 [Ia-241] | 90
Cc1cc(F)c(/N=C(\c2ccc(C(F)(F)F)cc2)N(C)C)cc1SCC(F)(F)F [Ia-242] | 100
C#CCN/C(=N\c1cc(SCC(F)(F)F)c(Cl)cc1Cl)C1CC1 [Ia-244] | 90

Same assay, conditions: Tetranychus urticae, foliar, 144 h, read-out: efficacy (spider mites killed)

Structure (SMILES) | pest or weed control at 500 g/ha [%]
Cc1cc(F)c(/N=C2/NCCS2)cc1SCC(F)(F)F [Ia-238, 2-Fluoro-4-methyl-N-[1,3-thiazolidin-2-ylidene]-5-[(2,2,2-trifluoroethyl)sulfanyl]aniline] | 100
Cc1cc(F)c(/N=C2\NCCO2)cc1SCC(F)(F)F [Ia-243] | 90
